Reference: patent US9133207B2, “Tetrandrine derivatives with substituted 5-carbon, preparation method and use thereof” (Hangzhou Bensheng Pharmaceutical Co., Ltd., priority 2011, dated 2015)
≈ marks a conversion by molar mass, not a printed value.

Assays:
[1] = test system: H9 (acute lymphoblastic leukemia, ALL); test: Leukemia cell growth inhibition, MTT, 72 h (Example 5); assay type: cell-based, human; conditions: Homo sapiens; 72 h, MTT
In short: (§1)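 Seed 6000 leukemia cells per well in 1640 medium containing 10% FBS. Add test compounds at different concentrations, mix, incubate 72 hours at 37° C in 5% CO2. Determine viable cells by MTT.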

[2] = test system: Jurkat (acute lymphoblastic leukemia, ALL); test: as above; assay type: cell-based, human; conditions: for IC50 / IC90: Homo sapiens, Jurkat, 72 h, MTT
In short: as §1

[3] = test system: K562/adr (drug-resistant, chronic myeloid leukemia, CML); test: as above; assay type: cell-based, human; conditions: Homo sapiens, K562/Adr; 72 h, MTT
In short: as §1

[4] = test system: Kasumi-1 (acute myeloid leukemia M2 type, AML-M2); test: as above; assay type: cell-based, human; conditions: Homo sapiens, Kasumi 1
In short: as §1

[5] = test system: NB4 (acute promyelocytic leukemia, AML); test: as above; assay type: cell-based, human; conditions: Homo sapiens; 72 h, MTT
In short: as §1

[6] = test system: RPMI8226 (multiple myeloma); test: Multiple myeloma cell growth inhibition, MTT, 72 h (Example 6); assay type: cell-based, human; conditions: Homo sapiens, RPMI-8226; 72 h, MTT, RPMI8226
In short: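 Viability was read by MTT after 72 h of compound exposure at 37 °C, 5% CO2. Each well held 6000 RPMI8226 cells in 1640 medium containing 10% fetal bovine serum, with derivatives added at various concentrations.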

[7] = test system: CaES-17 (esophageal cancer cell); test: Solid tumor cell growth inhibition, MTT, 72 h (Example 7); assay type: cell-based, human; conditions: Homo sapiens, CaEs17; 72 h, MTT, CAES-17
In short: (§2)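 Each line is plated at 4000 cells per well in high-glucose DMEM supplemented with 10% FBS. After 24 h settling, derivatives at several concentrations are mixed in and cultured 72 h; MTT then gives viable cells, with untreated wells set to 100%.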

[8] = test system: Hep-2 (laryngeal carcinoma); test: as above; assay type: cell-based, human; conditions: Homo sapiens; 72 h, MTT, Hep 2
In short: as §2

MG63 (osteosarcoma) = test: as above; assay type: cell-based, human; conditions: Homo sapiens; 72 h, MTT, MG-63
In short: as §2

[9] = test system: PANC-1 (pancreatic cancer); test: as above; assay type: cell-based, human; conditions: Homo sapiens; 72 h, MTT, PANC-1
In short: as §2

PC-3 (prostate cancer) = test: as above; assay type: cell-based, human; conditions: Homo sapiens; 72 h, MTT, PC-3
In short: as §2

A549 (human lung cancer) = test: as above; assay type: cell-based; conditions: Homo sapiens; 72 h, MTT, A549
In short: as §2

[10] = test system: Becap37 (human breast cancer cell); test: as above; assay type: cell-based; conditions: Homo sapiens; 72 h, MTT, Becap-37
In short: as §2

[11] = test system: CNE (nasopharyngeal carcinoma cell); test: as above; assay type: cell-based; conditions: Homo sapiens
In short: as §2

[12] = test system: Hela (human cervical cancer cell); test: as above; assay type: cell-based; conditions: Homo sapiens; 72 h, MTT, Hela
In short: as §2

[13] = test system: Huh7 (human liver cancer cell); test: as above; assay type: cell-based; conditions: Homo sapiens; 72 h, MTT, Huh-7
In short: as §2

[14] = test system: MGC 803 (human gastric cancer cell); test: as above; assay type: cell-based; conditions: Homo sapiens
In short: as §2

[15] = test system: RKO (human colon adenocarcinoma cell); test: as above; assay type: cell-based; conditions: Homo sapiens; 72 h, MTT, RKO
In short: as §2

[16] = test system: SK-OV-3 (ovarian cancer cell); test: as above; assay type: cell-based; conditions: Homo sapiens
In short: as §2

[17] = test system: U87 MG (malignant glioma cell); test: as above; assay type: cell-based; conditions: Homo sapiens, U-87 MG
In short: as §2

CNCc1c2c3c(c(OC)c1OC)Oc1cc4c(cc1OC)CCN(C)[C@H]4Cc1ccc(cc1)Oc1cc(ccc1OC)C[C@@H]3N(C)CC2 [BS-TE-326]
IC50 [1]: 0.88 µg/mL (≈ 1.32 µM) | IC90 [1]: 1.35 µg/mL (≈ 2.03 µM) | IC50 [2]: 1.41 µg/mL (≈ 2.12 µM) | IC90 [2]: 3.98 µg/mL (≈ 5.98 µM) | IC50 [3]: 0.89 µg/mL (≈ 1.34 µM) | IC90 [3]: 2.14 µg/mL (≈ 3.21 µM) | IC50 [4]: 0.96 µg/mL (≈ 1.44 µM) | IC90 [4]: 2.37 µg/mL (≈ 3.56 µM) | IC50 [5]: 1.2 µg/mL (≈ 1.8 µM) | IC90 [5]: 1.8 µg/mL (≈ 2.7 µM) | IC50 [6]: 0.27 µg/mL (≈ 0.406 µM) | IC90 [6]: 0.64 µg/mL (≈ 0.961 µM) | IC50 [7]: 2.5 µg/mL (≈ 3.75 µM) | IC90 [7]: 6.18 µg/mL (≈ 9.28 µM) | IC50 [8]: 3.62 µg/mL (≈ 5.44 µM) | IC90 [8]: 6.57 µg/mL (≈ 9.87 µM) | IC50 (MG63 (osteosarcoma)): 1.4 µg/mL (≈ 2.1 µM) | IC90 (MG63 (osteosarcoma)): 1.9 µg/mL (≈ 2.85 µM) | IC50 [9]: 1.63 µg/mL (≈ 2.45 µM) | IC90 [9]: 5.16 µg/mL (≈ 7.75 µM) | IC50 (PC-3 (prostate cancer)): 3.6 µg/mL (≈ 5.41 µM) | IC90 (PC-3 (prostate cancer)): 5.8 µg/mL (≈ 8.71 µM) | IC50 (A549 (human lung cancer)): 1.8 µg/mL (≈ 2.7 µM) | IC90 (A549 (human lung cancer)): 4.9 µg/mL (≈ 7.36 µM) | IC50 [10]: 1.3 µg/mL (≈ 1.95 µM) | IC90 [10]: 2 µg/mL (≈ 3 µM) | IC50 [11]: 3.2 µg/mL (≈ 4.81 µM) | IC90 [11]: 4.95 µg/mL (≈ 7.43 µM) | IC50 [12]: 1.9 µg/mL (≈ 2.85 µM) | IC90 [12]: 3.01 µg/mL (≈ 4.52 µM) | IC50 [13]: 1.15 µg/mL (≈ 1.73 µM) | IC90 [13]: 1.76 µg/mL (≈ 2.64 µM) | IC50 [14]: 1.46 µg/mL (≈ 2.19 µM) | IC90 [14]: 5.38 µg/mL (≈ 8.08 µM) | IC50 [15]: 0.87 µg/mL (≈ 1.31 µM) | IC90 [15]: 2.22 µg/mL (≈ 3.33 µM) | IC50 [16]: 1.91 µg/mL (≈ 2.87 µM) | IC90 [16]: 5.21 µg/mL (≈ 7.82 µM) | IC50 [17]: 0.75 µg/mL (≈ 1.13 µM) | IC90 [17]: 2.4 µg/mL (≈ 3.6 µM)

COc1ccc2cc1Oc1ccc(cc1)C[C@H]1c3cc(c(OC)cc3CCN1C)Oc1c(OC)c(OC)c(CN3CCCC(O)C3)c3c1[C@H](C2)N(C)CC3 (stereo partly shown) [BS-TE-321]
IC50 [1]: 0.91 µg/mL (≈ 1.24 µM) | IC90 [1]: 1.78 µg/mL (≈ 2.42 µM) | IC50 [2]: 0.94 µg/mL (≈ 1.28 µM) | IC90 [2]: 5.75 µg/mL (≈ 7.81 µM) | IC50 [3]: 0.49 µg/mL (≈ 0.666 µM) | IC90 [3]: 3.02 µg/mL (≈ 4.1 µM) | IC50 [4]: 0.48 µg/mL (≈ 0.652 µM) | IC90 [4]: 2.55 µg/mL (≈ 3.47 µM) | IC50 [5]: 0.8 µg/mL (≈ 1.09 µM) | IC90 [5]: 1.9 µg/mL (≈ 2.58 µM) | IC50 [6]: 0.08 µg/mL (≈ 0.109 µM) | IC90 [6]: 3.63 µg/mL (≈ 4.93 µM) | IC50 [7]: 2.25 µg/mL (≈ 3.06 µM) | IC90 [7]: 19.1 µg/mL (≈ 25.9 µM) | IC50 [8]: 3.51 µg/mL (≈ 4.77 µM) | IC90 [8]: 9.8 µg/mL (≈ 13.3 µM) | IC50 (MG63 (osteosarcoma)): 1.1 µg/mL (≈ 1.49 µM) | IC90 (MG63 (osteosarcoma)): 3.2 µg/mL (≈ 4.35 µM) | IC50 [9]: 2.6 µg/mL (≈ 3.53 µM) | IC90 [9]: 9.14 µg/mL (≈ 12.4 µM) | IC50 (PC-3 (prostate cancer)): 2.01 µg/mL (≈ 2.73 µM) | IC90 (PC-3 (prostate cancer)): 3.84 µg/mL (≈ 5.22 µM) | IC50 (A549 (human lung cancer)): 4.4 µg/mL (≈ 5.98 µM) | IC90 (A549 (human lung cancer)): 16 µg/mL (≈ 21.7 µM) | IC50 [10]: 1.4 µg/mL (≈ 1.9 µM) | IC90 [10]: 4.5 µg/mL (≈ 6.11 µM) | IC50 [11]: 2.8 µg/mL (≈ 3.8 µM) | IC90 [11]: 6.6 µg/mL (≈ 8.97 µM) | IC50 [12]: 1.48 µg/mL (≈ 2.01 µM) | IC90 [12]: 4.31 µg/mL (≈ 5.86 µM) | IC50 [13]: 0.81 µg/mL (≈ 1.1 µM) | IC90 [13]: 1.24 µg/mL (≈ 1.68 µM) | IC50 [14]: 1.78 µg/mL (≈ 2.42 µM) | IC90 [14]: 6.73 µg/mL (≈ 9.14 µM) | IC50 [15]: 0.69 µg/mL (≈ 0.938 µM) | IC90 [15]: 1.71 µg/mL (≈ 2.32 µM) | IC50 [16]: 3.5 µg/mL (≈ 4.76 µM) | IC90 [16]: > 16 µg/mL | IC50 [17]: 0.57 µg/mL (≈ 0.775 µM) | IC90 [17]: 2.51 µg/mL (≈ 3.41 µM)

COc1ccc2cc1Oc1ccc(cc1)C[C@H]1c3cc(c(OC)cc3CCN1C)Oc1c(OC)c(OC)c(CNCc3ccc(C)o3)c3c1[C@H](C2)N(C)CC3 [BS-TE-358]
IC50 [1]: 1.45 µg/mL (≈ 1.94 µM) | IC90 [1]: 2.4 µg/mL (≈ 3.22 µM) | IC50 [2]: 0.55 µg/mL (≈ 0.737 µM) | IC90 [2]: 4 µg/mL (≈ 5.36 µM) | anti-Jurkat activity increase over tetrandrine ([2]; compared with tetrandrine): ~4 fold | IC50 [3]: 0.63 µg/mL (≈ 0.845 µM) | IC90 [3]: 3.15 µg/mL (≈ 4.22 µM) | IC50 [4]: 1.1 µg/mL (≈ 1.47 µM) | IC90 [4]: 3.71 µg/mL (≈ 4.97 µM) | IC50 [5]: 0.8 µg/mL (≈ 1.07 µM) | IC90 [5]: 2 µg/mL (≈ 2.68 µM) | IC50 [6]: 0.08 µg/mL (≈ 0.107 µM) | IC90 [6]: 3.69 µg/mL (≈ 4.95 µM) | IC50 [7]: 2.69 µg/mL (≈ 3.61 µM) | IC90 [7]: 10.1 µg/mL (≈ 13.5 µM) | IC50 [8]: 3.37 µg/mL (≈ 4.52 µM) | IC90 [8]: 7.54 µg/mL (≈ 10.1 µM) | IC50 (MG63 (osteosarcoma)): 1.5 µg/mL (≈ 2.01 µM) | IC90 (MG63 (osteosarcoma)): 2.8 µg/mL (≈ 3.75 µM) | IC50 [9]: 2.66 µg/mL (≈ 3.57 µM) | IC90 [9]: 9.71 µg/mL (≈ 13 µM) | IC50 (PC-3 (prostate cancer)): 3.7 µg/mL (≈ 4.96 µM) | IC90 (PC-3 (prostate cancer)): 5.9 µg/mL (≈ 7.91 µM) | IC50 (A549 (human lung cancer)): 4 µg/mL (≈ 5.36 µM) | IC90 (A549 (human lung cancer)): 16 µg/mL (≈ 21.5 µM) | IC50 [10]: 1.96 µg/mL (≈ 2.63 µM) | IC90 [10]: 4.5 µg/mL (≈ 6.03 µM) | IC50 [11]: 2.26 µg/mL (≈ 3.03 µM) | IC90 [11]: 4.12 µg/mL (≈ 5.52 µM) | IC50 [12]: 2.12 µg/mL (≈ 2.84 µM) | IC90 [12]: 3.97 µg/mL (≈ 5.32 µM) | IC50 [13]: 1.35 µg/mL (≈ 1.81 µM) | IC90 [13]: 1.92 µg/mL (≈ 2.57 µM) | IC50 [14]: 1.39 µg/mL (≈ 1.86 µM) | IC90 [14]: 7.08 µg/mL (≈ 9.49 µM) | IC50 [15]: 0.6 µg/mL (≈ 0.804 µM) | IC90 [15]: 1.67 µg/mL (≈ 2.24 µM) | IC50 [16]: 4 µg/mL (≈ 5.36 µM) | IC90 [16]: > 16 µg/mL | IC50 [17]: 0.65 µg/mL (≈ 0.871 µM) | IC90 [17]: 1.99 µg/mL (≈ 2.67 µM)
